Results as given in patent US5795861A, “Methods for regulating gastrointestinal motility” (Amylin Pharmaceuticals Inc., priority 1995, dated 1998).
No end group written: not given here.

Columns and labels:
anesthetized rats = test: perfused exteriorized small bowel, passage of tritium-labelled glucose into plasma; assay type: in vivo, rat; details: plasma glucose clamped
Source text: After one hour of amylin infusion, a bolus of glucose (lg/kg) was infused either into the stomach or the duodenum through a tube inserted through the esophagus. Because-the studies involved anesthetized rather than conscious rats, they are not considered in analyzing gastric motility, e.g., rate of emptying of stomach contents into the duodenum. However, the studies indicate that absorption of glucose from the duodenum into the blood was not delayed by amylin. […] In anesthetized rats, a segment of small bowel, still connected to the animal via its blood supply, was exteriorized and cannulae inserted so that the small bowel could be perfused with glucosed solutions of controlled composition. The animals were cannulated also via an artery (for blood sampling) and via a vein (for infusion of amylin, insulin and glucose). The lumen was perfused with a tritium-labelled glucose solution. The passage of glucose from the lumen of the gut into the rat was measured by the appearance of the tritium label in the plasma. The supposition that such appearance of tritium in the plasma was indeed measuring glucose uptake from the gut was tested by administration of the glucose transport blocker, phloridzin. […]

fed rats = details: preinfusion of antagonist; cited from earlier work
corpulent LA/N rats = test: uptake of ingested labelled glucose load after amylin antagonist preinjection; assay type: in vivo, rat; details: for acceleration of appearance of glucose-derived tritium in the plasma: 3 μg s.c. 3 minutes before gavage
Method: Uptake of an ingested labelled glucose load was measured in 11 conscious 24-hr fasted corpulent (500-600 g) LA/N rats on 2 occasions, 14 days apart.

Mongrel dogs = test: oral glucose tolerance test in dogs during amylin ± AC-0253 infusion; assay type: in vivo
Method: Mongrel dogs (9 males, 12-17 kg wt. range) were used for this study. All animals were fasted overnight prior to each study. Each animal served as its own control for all protocols. Animals were equilibrated for 30-60 minutes prior to the start of each protocol.
25% glucose (1 gm/kg) was administered by mouth at t=0 minutes. […] Samples for insulin, glucose and lactate were obtained at 15 minute intervals from t=-45 to t=180 minutes.

O=C(CCc1ccc(O)cc1)c1c(O)cc(O)cc1O[C@@H]1O[C@H](CO)[C@@H](O)[C@H](O)[C@H]1O [Phloridzin, reference compound]
passage of tritium-labelled glucose from the gut lumen into the plasma (anesthetized rats): largely prevented the transit of label from the gut lumen into the plasma

^8-37 hCGRP: demonstrated amylin blocker in vitro and in vivo; also an effective CGRP antagonist (VTHRLAGLLSRSGGVVKNFVPTNVGSKAF)
glucose concentration following arginine infusion (fed rats): subsequent fall in glucose concentration to well below the basal level
insulin concentration 30 minutes following the arginine infusion vs normal controls (fed rats): almost twice as high

acetyl-^10 Asn^32 Tyr^8-32 salmon calcitonin (Ac-VLNKLSQELHKLQTYPRTNTGSGTY; ends and bridges not checked) [AC-0187]
plasma glucose 60 minutes after glucose gavage (corpulent LA/N rats; 3 μg s.c.): 6.89 ± 0.28 mM
acceleration of appearance of glucose-derived tritium in the plasma (corpulent LA/N rats; 15 minutes post-gavage): 48%
acceleration of appearance of glucose-derived tritium in the plasma (corpulent LA/N rats; 30 minutes post-gavage): 45%
plasma glucose 15 minutes after gavage (corpulent LA/N rats; 3 μg s.c., gavage with 0.5 g glucose): 8.33 ± 0.28 mM
plasma glucose before gavage (corpulent LA/N rats; 3 μg s.c., starting value): 5.89 ± 0.17 mM

acetyl-^11,18 Arg, ^30 Arg, ^32 Tyr-^9-32 calcitonin (salmon) [AC-0253]
changes in plasma glucose, antagonist alone (Mongrel dogs; AC-0253 alone): has no effect
reversal of amylin-induced changes in plasma glucose (Mongrel dogs; AC-0253 up to 1500 pmol/kg/min with amylin 50 pmol/kg/min): does not completely reverse the effects of amylin
effects on plasma lactate (Mongrel dogs; oral glucose load): unremarkable
